Reference: PubChem BioAssay (NCI)
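Step 1: Grow cells in 96-well plates. Step 2: Expose to compound for 48 hours at 5 concentrations. Step 3: Interpolate endpoints linearly; if unreached, use highest concentration. GI50 marks 50% less growth. TGI: total growth inhibition.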

Tests used:
Assay in all cases: NCI tumour cell line growth inhibition, 48 h
[1] = system: KM20L2 colon
[2] = system: M19-MEL melanoma
[3] = system: DMS 114 small cell lung
[4] = system: XF 498 CNS
[5] = system: DMS 273 small cell lung
[6] = system: LXFL 529 NSCLC
[7] = system: SNB-78 CNS
[8] = system: HOP-18 NSCLC
[9] = system: P388 leukemia
[10] = system: SN12K1 renal

Row | Compound | TGI [1] | TGI [2] | TGI [3] | TGI [4] | TGI [5] | TGI [6] | TGI [7] | TGI [8] | GI50 [1] | GI50 [2] | GI50 [6] | GI50 [7] | GI50 [3] | GI50 [4] | GI50 [9] | TGI [9] | GI50 [8] | GI50 [10] | TGI [10]
1 | C1=C(c2ccccc2)SC(N2CCCCC2)S1 (configuration not stated) | > 100 µM | > 100 µM | > 100 µM | > 100 µM | > 100 µM | > 100 µM | > 100 µM | – | – | – | – | – | – | – | – | – | – | – | –
2 | COC(=O)Cc1cc(O)c2c(c1O)C(=O)c1ccccc1C2=O | > 100 µM | > 100 µM | > 100 µM | – | > 100 µM | > 100 µM | > 100 µM | > 100 µM | – | – | – | – | – | – | – | – | – | – | –
3 | CCOC(=O)C(C#N)(Cc1c[nH]c2ccccc12)NC(C)=O (configuration not stated) | > 100 µM | > 100 µM | > 100 µM | – | > 100 µM | > 100 µM | – | – | – | – | – | – | – | – | – | – | – | – | –
4 | N=C1C(=N)c2ccccc2-c2ccccc21.[Cl-].[Ru+2].c1ccc(-c2ccccn2)nc1.c1ccc(-c2ccccn2)nc1 | > 100 µM | > 100 µM | – | – | – | > 100 µM | > 100 µM | – | > 100 µM | > 100 µM | > 100 µM | > 100 µM | – | – | – | – | – | – | –
5 | CNC(C)(C)Cc1ccc(Cl)cc1 | > 100 µM | > 100 µM | > 100 µM | > 100 µM | – | > 100 µM | – | – | – | – | – | – | – | – | – | – | – | – | –
6 | Cc1cc([NH-])c([NH-])cc1C.[Cl][Pt+2][Cl] | > 81.9 µM | 31.2 µM | 32.3 µM | 46.4 µM | – | – | > 96 µM | > 100 µM | 20.2 µM | 8.79 µM | – | 26.5 µM | 8.09 µM | 19.7 µM | 2.42 µM | 10.2 µM | > 82 µM | 13.5 µM | 32 µM
7 | CCCCCOc1ccc(C=Nc2ccc(CCc3ccc(N=Cc4ccc(OCCCCC)cc4)cc3)cc2)cc1 | > 100 µM | > 100 µM | > 100 µM | > 100 µM | > 100 µM | – | > 100 µM | > 100 µM | – | – | – | – | – | – | – | > 100 µM | – | – | > 100 µM
